In test [1] the target is 5-HT1A receptor (Rattus norvegicus (Rat), UniProt P19327). The test can be described thus: Binding to 5-HT1A receptor ([3H]-8-OH-DPAT, rat cortical membranes). The arrangement: species or system Sprague-Dawley (SD) rats. Conditions: for inhibition at 1 µM: 1 h, read-out: 5-HT1A: Suppression; for IC50: 2 nM [3H]-8-OH-DPAT, read-out: 5-HT1A: IC50 (Concentration required to be 50% suppressed). The protocol:
Binding to 5-HT1A Receptor
6-week-old Sprague-Dawley (SD) rats were anesthetized in an ether container for 5 minutes, brains were separated from rats, and cortical regions were then separated from the brains of the rats. The cortical regions of the rats were put into a Tris-HCl buffer solution (50 mM, pH 7.4) and homogenized, and the homogenate was centrifuged twice at 4? at a rotary speed of 50,000 g to obtain a precipitate (membrane protein). The precipitate was put into a buffer solution, and homogenized, which was used later as a protein source. 2 nM [3H]-8-OH-DPAT was used as a radioactive isotope, and 10 uM serotonin was used to remove non-specific bindings. 25 ul of the compound, 100 ul of an aqueous radioactive isotope solution, and 100 ul of the protein source were put together, and kept at 25° C. for 1 hour. The resulting mixture was filtered with a membrane filter in a 96-well harvester when the 96-well plate reaction was completed. The competitivity of the compound to [3H]-8-OH-DPAT was determined by taking the membrane filter and measuring the radioactivity of the membrane filter in a scintillation counter, and an IC50 value was determined by measuring the increasing concentration of the compound. The specific reaction of the compound accounted for 90% or more. The general experiments were carried out according to the method by Middlemiss et al. (1984, Eur. J. Pharmacol.).

Test [2] has as its system male ICR mouse. The test can be described thus: Acetic acid-induced writhing test in mouse. Conditions: Mus musculus; for inhibition in vivo at 10 mg/kg: at 10 po (method: 10 mg/kg oral, 1 hour before acetic acid), read-out: AA Writhing: Suppression ratio of Pain response; for ED50: unit not given (method doses in mg/kg), read-out: AA Writhing: ED50. Format: in vivo. Put shortly:
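Male ICR mice (30 to 35 g) dosed orally at 10 mg/kg, then given 0.8% acetic acid i.p. 1 h later. Writhes counted for 10 min and expressed as % suppression against vehicle. ED50 derived by linear regression over at least three doses.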

The target in test [3] is 5-HT2A receptor (Rattus norvegicus (Rat), UniProt P14842). The test can be described thus: Binding to 5-HT2A receptor ([3H]-Ketanserin, rat cortical membranes). On the set-up: species or system Sprague-Dawley (SD) rats. As to conditions: for inhibition at 1 µM: 1 h, read-out: 5-HT2A: Suppression; for IC50: 0.5 nM [3H]-Ketanserin, read-out: 5-HT2A: IC50 (Concentration required to be 50% suppressed). The protocol: Binding to 5-HT2A Receptor
6-week-old Sprague-Dawley (SD) rats were anesthetized in an ether container for 5 minutes, brains were separated from rats, and cortical regions were then separated from the brains of the rats. The cortical regions of the rats were put into a Tris-HCl buffer solution (50 mM, pH 7.7) and homogenized, and the homogenate was centrifuged twice at 4° C. at a rotary speed of 50,000 g to obtain a precipitate (membrane protein). The precipitate was put into a buffer solution, and homogenized, which was used later as a protein source. 0.5 nM [3H]-Ketanserin was used as a radioactive isotope, and 10 uM serotonin was used to remove non-specific bindings. 25 ul of the compound, 100 ul of an aqueous radioactive isotope solution, and 100 ul of the protein source were put together, and kept at 25° C. for 1 hour. The resulting mixture was filtered with a membrane filter in a 96-well harvester when the 96-well plate reaction was completed. The competitivity of the compound to [3H]-Ketanserin was determined by taking the membrane filter and measuring the radioactivity in a scintillation counter, and an IC50 value was determined by measuring the increasing concentration of the compound. The specific reaction of the compound accounted for 90% or more. The general experiments were carried out according to the method by Leysen et al. (1982, Eur. J. Pharmacol).

Test [4] deals with male ICR mouse. Put plainly: Formalin test - late phase in mouse. Format: in vivo. Conditions: po, unit inferred. The protocol: 3. Formalin Test—Late Phase in Mouse
A formalin test is another model for measuring an analgesic effect of drugs. […] These pain behaviors have a biphasic pattern, and therefore they are divided into an early-phase behavior within […] after the formalin administration; and a late-phase behavior up to 10 to 60 minutes. The medicinal effect observed in the formalin test-late phase means an analgesic effect of the test material in the inflammatory pain model, and also becomes a measure that may predict the medicinal effects in the neuropathic pain model (Vissers K et. al, 2003). A test material was orally administered to a male ICR mouse weighing 30 to 35 g. After 1 hour of the oral administration, 20 μl of a 2.5% formalin solution was subcutaneously injected into the planta surface of a mouse's hindlimb to induce pain. […] The analgesic effect of the test material is represented by the ‘suppression ratio of pain response’ {[(Pain response time of Vehicle-administered group−Pain response time of Test material-administered group)/(Pain response time of Vehicle-administered group)]×100%}, or ‘50% of Effective amount (ED50; an amount of a test material that is required to suppress 50% of pain behaviors) of Test material’. The ED50 (median effective dose) was determined by calculating the suppression ratio of pain response in at least three doses of test materials and subjecting to the linear regression.

Like-named read-outs stand apart in the source and are kept apart here.

Chain of 5-HT2A receptor (P14842 whole entry): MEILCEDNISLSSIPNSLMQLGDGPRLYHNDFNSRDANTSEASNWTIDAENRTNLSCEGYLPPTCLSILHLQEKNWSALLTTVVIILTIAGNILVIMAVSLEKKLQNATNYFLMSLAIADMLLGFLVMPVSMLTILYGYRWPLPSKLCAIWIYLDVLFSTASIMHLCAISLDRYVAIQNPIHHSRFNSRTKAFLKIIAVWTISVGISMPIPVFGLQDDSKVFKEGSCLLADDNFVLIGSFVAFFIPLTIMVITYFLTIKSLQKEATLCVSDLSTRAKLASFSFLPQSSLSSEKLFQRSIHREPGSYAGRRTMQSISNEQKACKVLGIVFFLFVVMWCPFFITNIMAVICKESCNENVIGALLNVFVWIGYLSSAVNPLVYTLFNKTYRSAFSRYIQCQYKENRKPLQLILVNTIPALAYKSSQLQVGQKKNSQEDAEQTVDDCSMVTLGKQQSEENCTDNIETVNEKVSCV
Chain of 5-HT1A receptor (P19327 whole entry): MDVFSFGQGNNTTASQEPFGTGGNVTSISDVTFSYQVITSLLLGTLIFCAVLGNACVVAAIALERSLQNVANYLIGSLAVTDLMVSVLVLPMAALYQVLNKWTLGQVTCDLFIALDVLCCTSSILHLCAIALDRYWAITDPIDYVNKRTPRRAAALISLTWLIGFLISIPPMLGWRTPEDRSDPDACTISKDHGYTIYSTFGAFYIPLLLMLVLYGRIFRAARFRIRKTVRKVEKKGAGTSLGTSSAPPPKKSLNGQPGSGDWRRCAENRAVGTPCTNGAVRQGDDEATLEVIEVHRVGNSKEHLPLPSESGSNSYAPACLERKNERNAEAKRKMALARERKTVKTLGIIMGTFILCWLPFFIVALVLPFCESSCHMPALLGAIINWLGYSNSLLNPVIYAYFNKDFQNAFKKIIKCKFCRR

In the case of `COc1ccc(C(CCN2CCN(c3ccccc3)CC2)OC(N)=O)cc1` (centres unmarked) [Example 8, Carbamic acid 1-(4-methoxy-phenyl)-3-(4-phenyl-piperazin-1-yl)-propyl ester], the inhibition at 1 µM worked out at 67.7% in test [1] and 82% in test [3]. Besides, the inhibition in vivo at 10 mg/kg in test [2] (po, 1 h) came out at 43%.

Consider `NC(=O)OC(CCN1CCN(c2ccc(Cl)cc2)CC1)c1ccccc1` (centres unmarked) [Example 22, Carbamic acid 3-[4-(4-chloro-phenyl)-piperazin-1-yl]-1-phenyl-propyl ester], for which the IC50 in test [1] came out at 1860 nM; in test [3], 264 nM.

As for `NC(=O)OC(CCN1CCN(c2ccccn2)CC1)c1ccccc1` (centres unmarked) [Example 25, Carbamic acid 1-phenyl-3-(4-pyridin-2-yl-piperazin-1-yl)-propyl ester], the IC50 in test [1] was determined as 338 nM; in test [3], 448 nM.

With `CC(C)(C)c1ccc(C(CCN2CCN(c3ccccc3)CC2)OC(N)=O)cc1` (centres unmarked) [Example 5, Carbamic acid 1-(4-tert-butyl-phenyl)-3-(4-phenyl-piperazin-1-yl)-propyl ester], the inhibition at 1 µM in test [1] turned out to be 44.4%; in test [3] it was 98.8%. Moreover, the inhibition in vivo at 10 mg/kg in test [2] (po, 1 h) was found to be 62%.

As for `NC(=O)OC(CCN1CCN(c2ccccc2)CC1)c1cccc(Cl)c1` (centres unmarked) [Example 7, Carbamic acid 1-(3-chloro-phenyl)-3-(4-phenyl-piperazin-1-yl)-propyl ester], the inhibition at 1 µM in test [1] worked out at 76.4%; in test [3], 93.7%. Further, the inhibition in vivo at 10 mg/kg in test [2] (po, 1 h) was determined as 59%.

For the compound `Cc1ccccc1N1CCN(CCC(OC(N)=O)c2ccc(F)cc2)CC1` (centres unmarked) [Example 80, Carbamic acid 1-(4-fluoro-phenyl)-3-(4-o-tolyl-piperazin-1-yl)-propyl ester], the inhibition at 1 µM in test [1] came to 75.3%; in test [3], 76.8%. Moreover, the inhibition in vivo at 10 mg/kg in test [2] (po, 1 h) stood at 29%.

On to `COc1cccc(N2CCN(CCC(OC(N)=O)c3ccccc3)CC2)c1` (centres unmarked) [Example 26, Carbamic acid 3-[4-(3-methoxy-phenyl)-piperazin-1-yl]-1-phenyl-propyl ester], for which the IC50 was 80.8 nM in test [1] and 502 nM in test [3].

In the case of `COc1ccccc1N1CCN(CCC(OC(N)=O)c2ccccc2)CC1` (centres unmarked) [Example 27, Carbamic acid 3-[4-(2-methoxy-phenyl)-piperazin-1-yl]-1-phenyl-propyl ester], the figures for the IC50 in test [1] and in test [3] were 97.6 nM and 164 nM, respectively. Further, the ED50 in test [2] (po) turned out to be 7.8 mg/kg.

With `NC(=O)OC(CCCN1CCN(c2ncccc2Cl)CC1)c1ccccc1` (centres unmarked) [Example 97, Carbamic acid 4-[4-(3-chloro-pyridin-2-yl)-piperazin-1-yl]-1-phenyl-butyl ester], the figures for the IC50 in test [1] and in test [3] were 181 nM and 519 nM, respectively.

For `NC(=O)OC(CCN1CCN(c2ccc(F)cc2)CC1)c1ccccc1` (centres unmarked) [Example 21, Carbamic acid 3-[4-(4-fluoro-phenyl)-piperazin-1-yl]-1-phenyl-propyl ester], the IC50 in test [1] came to 1050 nM; in test [3] it was 64.5 nM. In test [2], the inhibition in vivo at 10 mg/kg came out at 88%.

For `NC(=O)OC(CCN1CCN(c2cccc(C(F)(F)F)c2)CC1)c1ccccc1` (centres unmarked) [Example 39, Carbamic acid 1-phenyl-3-[4-(3-trifluoromethyl-phenyl)-piperazin-1-yl]-propyl ester], the values for the IC50 in test [1] and in test [3] were 12.6 nM and 660 nM, respectively.

For the compound `NC(=O)OC(CCN1CCN(c2ccc(F)cc2)CC1)c1ccc(F)cc1` (centres unmarked) [Example 81, Carbamic acid 1-(4-fluoro-phenyl)-3-[4-(4-fluoro-phenyl)-piperazin-1-yl]-propyl ester], the inhibition at 1 µM in test [1] amounted to 60.9%; in test [3], 93.9%. Moreover, the inhibition in vivo at 10 mg/kg in test [2] (po, 1 h) worked out at 52%.

For `NC(=O)OC(CCN1CCN(C(c2ccc(F)cc2)c2ccc(F)cc2)CC1)c1ccccc1` (centres unmarked) [Example 93, Carbamic acid 3-{4-[bis-(4-fluoro-phenyl)-methyl]-piperazin-1-yl}-1-phenyl-propyl ester], the figures for the IC50 in test [1] and in test [3] were more than 10000 nM and 940 nM, respectively.

Regarding `NC(=O)OC(CCN1CCN(c2cccc(Cl)c2)CC1)c1ccccc1` (centres unmarked) [Example 36, Carbamic acid 3-[4-(3-chloro-phenyl)-piperazin-1-yl]-1-phenyl-propyl ester], the IC50 in test [1] turned out to be 93.8 nM; in test [3], 61.5 nM. In addition, in test [2] (po), the ED50 turned out to be 17.5 mg/kg.

In the case of `COc1ccc(N2CCN(CC[C@H](OC(N)=O)c3ccccc3)CC2)cc1` [Example 106, (S)-carbamic acid 3-[4-(4-methoxy-phenyl)-piperazin-1-yl]-1-phenyl-propyl ester], the ED50 was 1.43 mg/kg in test [2] (ip) and 12.5 mg/kg in test [4].

As to `Cc1ccc(C(CCN2CCN(c3ccccc3)CC2)OC(N)=O)cc1` (centres unmarked) [Example 10, Carbamic acid 3-(4-phenyl-piperazin-1-yl)-1-p-tolyl-propyl ester], the inhibition at 1 µM in test [1] is 59.6%; in test [3], 85.6%.

As for `COc1ccccc1N1CCN(CCCC(OC(N)=O)c2ccccc2)CC1` (centres unmarked) [Example 95, Carbamic acid 4-[4-(2-methoxy-phenyl)-piperazin-1-yl]-1-phenyl-butyl ester], the IC50 in test [1] was 5.82 nM; in test [3], 1500 nM.

Regarding `NC(=O)OC(CCN1CCN(c2ccc([N+](=O)[O-])cc2)CC1)c1ccc(F)cc1` (centres unmarked) [Example 79, Carbamic acid 1-(4-fluoro-phenyl)-3-[4-(4-nitro-phenyl)-piperazin-1-yl]-propyl ester], the inhibition at 1 µM in test [1] and in test [3] was 29.6% in each case. Besides, the inhibition in vivo at 10 mg/kg in test [2] (po, 1 h) came to 70%.

Regarding `NC(=O)OC(CCCN1CCN(c2ccccn2)CC1)c1ccccc1` (centres unmarked) [Example 96, Carbamic acid 1-phenyl-4-(4-pyridin-2-yl-piperazin-1-yl)-butyl ester], the IC50 in test [1] was 20.4 nM; in test [3], 3140 nM.

`NC(=O)OC(CCN1CCN(c2ccccc2)CC1)c1cccc([N+](=O)[O-])c1` (centres unmarked) [Example 4, Carbamic acid 1-(3-nitro-phenyl)-3-(4-phenyl-piperazin-1-yl)-propyl ester]: the inhibition at 1 µM worked out at 74.6% in test [1] and 86.4% in test [3]. Besides, the inhibition in vivo at 10 mg/kg in test [2] (po, 1 h) worked out at 48%.

`COc1ccccc1N1CCN(CCC(OC(N)=O)c2ccc(F)cc2)CC1` (centres unmarked) [Example 78, Carbamic acid 1-(4-fluoro-phenyl)-3-[4-(2-methoxy-phenyl)-piperazin-1-yl]-propyl ester]: the inhibition at 1 µM in test [1] is 79%; in test [3] it was 71.5%. Further, in test [2] (po, 1 h), the inhibition in vivo at 10 mg/kg worked out at 34%.

These data come from US8815852B2, “Carbamoyloxy arylalkan arylpiperazine analgesics” (SK Biopharmaceuticals Co., Ltd., priority 2007, dated 2014).
